Assay results from patent publication US20260317367A1, “SALTS INCLUDING CRYSTALLINE SALTS OF 25-HYDROXY-CHOLEST-5-EN-3-SULFATE AND METHODS FOR PREPARING SAME” (Durect Corporation, priority 2022, published 2026).
“Also recorded” adds a separate entry of the source. Structures can show the parent of a compound that is named as a salt.

What was measured:
Type in all cases: physicochemical
[1] = Solid-state chemical stability of 25HC3S salts at 2-8° C., 60° C. and 80° C. (HPLC assay and degradation products); details: for % Impurities, Total / % Impurities, 25-HC: ND = Not Detected; for % Impurities, 25-HC: 25-Hydroxy-Cholesterol; for % Recovery: vs 2-8° C.; for Stability after 1 week at 60° C. (in words): 1 week (after 3 weeks at 2-8° C.)
Method in brief: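 Crystalline 25HC3S salts (~25 mg powder per vial) stored at 2-8° C. or 80° C., pulled at 3 and 6 weeks; some 3-week 2-8° C. vials moved to 60° C. for 1 week. Dissolved in 100% methanol (sonication/vortexing, centrifugation or dilution), then HPLC against 25HC3S sodium standards (0.75-1.25 mg/mL) for assay and degradants.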

[2] = Angle of repose of 25HC3S salts; details: for Flow Property per USP<1174> Powder Flow: classification by angle of repose
Method in brief: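 About 2 g of salt powder was poured through a 7 mm inner-diameter tube into a 21.14 mm rubber O-ring, forming a cone of fixed diameter. Cone height was measured with calipers and the angle of repose was calculated from it. Flow was classified per USP<1174>.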

[3] = Overall rank order of powder flowability (angle of repose and Hausner ratio); details: for Powder flowability, overall (in words): angle of repose and compressibility index/Hausner ratio combined; for Angle of Repose Rank Order / Hausner Ratio Rank Order / Overall Rank Order (Total Score): lower is better flow; for Overall Rank Order (Total Score): sum of both ranks
Source text: Table C5 was generated by adding the relative rank order of the 25HC3S salts for angle of repose and Hausner ratio results, and creating an Over All Rank Order of the salts powder flowability. The salts with the lower overall rank order score had better powder flowability.

[4] = Thermogravimetric analysis (TGA), weight loss
Method in brief: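 Mettler-Toledo TGA/DSC3, calibrated with indium, tin and zinc, balance checked with calcium oxalate. Sample in a hermetically sealed aluminium pan with pierced lid, heated under nitrogen from ambient to 350° C at 10° C/min. Weight loss reported against sample temperature.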

[5] = 2-8° C., 3 wk, listed as 25HC3S t-butylammonium
[6] = 2-8° C., 5 wk, listed as 25HC3S t-butylammonium
[7] = 80° C., 3 wk, listed as 25HC3S t-butylammonium
[8] = 80° C., 5 wk, listed as 25HC3S t-butylammonium
[9] = 80° C., 5 wk, 50400 min, listed as 25HC3S t-butylammonium
[10] = listed as 25HC3S t-butylammonium
[11] = 2-8° C., 3 wk, listed as 25HC3S zinc
[12] = 80° C., 3 weeks, listed as 25HC3S Zinc
[13] = 2-8° C., 3 wk, listed as 25HC3S potassium
[14] = 60° C., 1 wk, listed as 25HC3S potassium
[15] = 2-8° C., 3 wk, listed as 25HC3S tromethammonium
[16] = 80° C., 3 wk, listed as 25HC3S tromethammonium
[17] = 80° C., 5 wk, listed as 25HC3S tromethammonium
[18] = 80° C., 5 wk, 50400 min, listed as 25HC3S tromethammonium
[19] = listed as 25HC3S tromethammonium

## CC(CCCC(C)(C)O)C1CCC2C3CC=C4CC(OS(=O)(=O)O)CCC4(C)C3CCC12C (stereo not drawn) [Salt #12]
[1]; 2-8° C., 3 wk, 30240 min, listed as 25HC3S t-butylammonium
  Assay: 99.8 % w/w
[1]; [5]
  % Impurities, Total: 1.5%
  % Impurities, 25-HC: 0.3%
[1]; 2-8° C., 5 wk, 50400 min, listed as 25HC3S t-butylammonium
  Assay: 106.2 % w/w
[1]; [6]
  % Impurities, Total: 1.5%
  % Impurities, 25-HC: 0.3%
[1]; 2-8° C., 60° C., 80° C.
  Overall physical and chemical stability (in words): physically and chemically stable
[1]; 2-8° C., 60° C., 80° C., listed as t-butylammonium
  Overall physical and chemical stability (in words): relatively stable
[1]; [7]
  % Impurities, 25-HC: 0.3%
  % Impurities, Total: 1.7%
[1]; [8]
  % Impurities, 25-HC: 0.2%
  % Impurities, Total: 1.6%
[1]; 80° C.
  Stressed stability at 80° C. (in words): good, stressed stability
[1]; 80° C., 3 wk, 30240 min, listed as 25HC3S t-butylammonium, 30240 min
  % Recovery: 99.4%
[1]; 80° C., 3 wk, 30240 min, listed as 25HC3S t-butylammonium
  Assay: 99.2 % w/w
[1]; 80° C., 5 weeks
  Physical and chemical solid-state stability (comments): Stable after 5 weeks at 80 °C physically and chemically.
[1]; [9]
  % Recovery, 2-8° C./5 wk vs 80° C./5 wk: 98.8%
  Assay: 104.9 % w/w
[1]; solid state, 80° C., 5 weeks
  Stability after 5 weeks at 80° C. (in words): stable
[2]; [10]
  Flow Property per USP<1174> Powder Flow: Poor - must agitate,
  Angle of Repose: 46.3 degrees
  Angle of Repose, Rounded Whole Number: 46 degrees
[3]; listed as t-butylammonium
  Powder flowability, overall (in words): poorer flowability
[3]; [10]
  Angle of Repose Rank Order: 13
  Hausner Ratio Rank Order: 8
  Overall Rank Order (Total Score): 21
[4]; up to 200° C., listed as crystalline 25HC3S t-butylammonium
  Weight loss by TGA up to 200° C.: 0.2%

## CC(CCCC(C)(C)O)C1CCC2C3CC=C4CC(OS(=O)(=O)O)CCC4(C)C3CCC12C (stereo not drawn) [Salt #3]
[1]; 2-8° C., 3 wk, 30240 min, listed as 25HC3S zinc
  Assay: 92.6 % w/w
[1]; [11]
  % Impurities, Total: 0.6%
  % Impurities, 25-HC: 0.2%
[1]; 2-8° C., 60° C., 80° C.
  Overall physical and chemical stability (in words): least physically and chemically stable
[1]; 2-8° C., 60° C., 80° C., listed as zinc
  Overall physical and chemical stability (in words): least stable
[1]; 60° C., 1 week, listed as 25HC3S Zinc
  Physical and chemical solid-state stability (comments): Totally decomposed after 1 weck at 60 °C
[1]; 60° C., 1 wk (after 3 weeks at 2-8° C.), 10080 min, listed as 25HC3S zinc, 10080 min
  Assay: 0.0 % w/w
[1]; 60° C., 1 wk, 10080 min, listed as 25HC3S zinc
  % Recovery of 2-8° C./3 wk vs 60° C./1 wk: 0.0%
[1]; 60° C., 1 wk, listed as 25HC3S zinc
  % Impurities, Total: 100.0%
[1]; [12]
  Physical and chemical solid-state stability (comments): Totally decomposed after 1 weck at 60 °C and after 3 weeks at 80 °C
  dissolution of decomposed samples in diluent / degradants observed (comments): decomposed samples at 3-weeks at 80 °C did not dissolve in the diluent,; also recorded: therefore, no degradants were observed
[1]; 80° C., 3 wk, 30240 min, listed as 25HC3S zinc, 30240 min
  % Recovery: 0.0%
[1]; 80° C., 3 wk, 30240 min, listed as 25HC3S zinc
  Assay: 0.0 % w/w
[1]; solid state, 60° C.
  Stability after 1 week at 60° C. (in words): totally decomposed
[1]; solid state, 80° C., 3 weeks
  Stability after 3 weeks at 80° C. (in words): totally decomposed
[2]; listed as 25HC3S zinc
  Flow Property per USP<1174> Powder Flow: Passable - may hang up
  Angle of Repose: 42.4 degrees
  Angle of Repose, Rounded Whole Number: 42 degrees
[3]; listed as zinc
  Powder flowability, overall (in words): next group
[3]; listed as 25HC3S zinc
  Angle of Repose Rank Order: 10
  Hausner Ratio Rank Order: 5
  Overall Rank Order (Total Score): 15
[4]; about […] C. to about 190° C., may be decomposition
  Weight loss by TGA, about […] C. to about 190° C.: 11.5%
[4]; room temperature to about 130° C.
  Weight loss by TGA, room temperature to about 130° C.: about 5.1%

## CC(CCCC(C)(C)O)C1CCC2C3CC=C4CC(OS(=O)(=O)O)CCC4(C)C3CCC12C (stereo not drawn) [Salt #1]
[1]; [13]
  % Impurities, Total: 1.3%
  % Impurities, 25-HC: 0.2%
[1]; [14]
  % Impurities, 25-HC: 0.3%
  % Impurities, Total: 1.6%
[1]; 60° C., 1 week, listed as 25HC3S Potassium
  Physical and chemical solid-state stability (comments): Stable after 1 week at 60 C.
[1]; 60° C., 1 wk (after 3 weeks at 2-8° C.), 10080 min, listed as 25HC3S potassium, 10080 min
  Assay: 103.1 % w/w
[1]; 60° C., 1 wk, 10080 min, listed as 25HC3S potassium
  % Recovery of 2-8° C./3 wk vs 60° C./1 wk: 105.4%
[1]; 80° C., 3 weeks, listed as 25HC3S Potassium
  Physical and chemical solid-state stability (comments): totally decomposed after 3 weeks
[1]; 80° C., 3 wk, 30240 min, listed as 25HC3S potassium, 30240 min
  % Recovery: 0.0%
[1]; 80° C., 3 wk, 30240 min, listed as 25HC3S potassium
  Assay: 0.0 % w/w
[1]; 80° C., 3 wk, listed as 25HC3S potassium
  % Impurities, Total: 100%
[1]; solid state, 2-8° C., 3 wk, read-out: Assay
  remaining at 504 h: 97.8%
[1]; solid state, 60° C.
  Stability after 1 week at 60° C. (in words): stable
[1]; solid state, 80° C., 3 weeks
  Stability after 3 weeks at 80° C. (in words): totally decomposed
[2]; listed as 25HC3S potassium
  Flow Property per USP<1174> Powder Flow: Fair - aid not needed
  Angle of Repose: 37.7 degrees
  Angle of Repose, Rounded Whole Number: 38 degrees
[3]; listed as potassium
  Powder flowability, overall (in words): top three
[3]; listed as 25HC3S potassium
  Angle of Repose Rank Order: 6
  Hausner Ratio Rank Order: 3
  Overall Rank Order (Total Score): 9
[4]; 100° C. to 180° C.
  Weight loss by TGA, 100° C. to 180° C.: 1.7%
[4]; to about 100° C.
  Weight loss by TGA to about 100° C.: about 0.9%

## CC(CCCC(C)(C)O)C1CCC2C3CC=C4CC(OS(=O)(=O)O)CCC4(C)C3CCC12C (stereo not drawn) [Salt #8]
[1]; 2-8° C., 3 wk, 30240 min, listed as 25HC3S tromethammonium
  Assay: 99.4 % w/w
[1]; [15]
  % Impurities, Total: 0.9%
  % Impurities, 25-HC: 0.1%
[1]; 2-8° C., 5 wk, 50400 min, listed as 25HC3S tromethammonium
  Assay: 105.4 % w/w
[1]; 2-8° C., 5 wk, listed as 25HC3S tromethammonium
  % Impurities, Total: 0.7%
[1]; [16]
  % Impurities, 25-HC: 0.1%
  % Impurities, Total: 1.2%
[1]; [17]
  % Impurities, 25-HC: 2.1%
  % Impurities, Total: 12.3%
[1]; 80° C.
  Stressed stability at 80° C. (in words): good, stressed stability
[1]; 80° C., 3 weeks, listed as 25HC3S Tromethammonium
  Physical and chemical solid-state stability (comments): Stable after 3 weeks at 80 °C
[1]; 80° C., 3 wk, 30240 min, listed as 25HC3S tromethammonium, 30240 min
  % Recovery: 99.8%
[1]; 80° C., 3 wk, 30240 min, listed as 25HC3S tromethammonium
  Assay: 99.2 % w/w
[1]; [18]
  % Recovery, 2-8° C./5 wk vs 80° C./5 wk: 91.1%
  Assay: 96.0 % w/w
[1]; solid state, 80° C., 3 weeks
  Stability after 3 weeks at 80° C. (in words): stable
[1]; solid state, 80° C., 5 weeks, read-out: Degradation based on % Recovery to the 2-8° C. control samples
  degraded at 840 h: ~9%
[2]; [19]
  Flow Property per USP<1174> Powder Flow: Fair - aid not needed
  Angle of Repose: 40.2 degrees
  Angle of Repose, Rounded Whole Number: 40 degrees
[3]; listed as tromethammonium
  Powder flowability, overall (in words): next group
[3]; [19]
  Angle of Repose Rank Order: 8
  Hausner Ratio Rank Order: 6
  Overall Rank Order (Total Score): 14
[4]; up to about 80° C.
  Weight loss by TGA up to about 80° C.: ~0.3%
